According to article PMC4764977, “AZD8797 is an allosteric non-competitive modulator of the human CX3CR1 receptor” (Biochemical Journal, 2016):
Several values for one entry are separate records, joined by “and”; a condition that tells them apart may be missing. Identical values can stand only once.

Tests used:
[1] = system: untransfected CHO-K1 cells; assay: Dynamic mass redistribution (DMR), untransfected CHO-K1 cells; assay type: cell-based, Chinese hamster
[2] = target: T1, CX3CR1 (Homo sapiens, UniProt P49238); assay: 125I-CX3CL1 kinetic radioligand binding, CHO-hCX3CR1 membranes; set-up: host or cells: CHO-K1
T1 sequence (P49238 1-355): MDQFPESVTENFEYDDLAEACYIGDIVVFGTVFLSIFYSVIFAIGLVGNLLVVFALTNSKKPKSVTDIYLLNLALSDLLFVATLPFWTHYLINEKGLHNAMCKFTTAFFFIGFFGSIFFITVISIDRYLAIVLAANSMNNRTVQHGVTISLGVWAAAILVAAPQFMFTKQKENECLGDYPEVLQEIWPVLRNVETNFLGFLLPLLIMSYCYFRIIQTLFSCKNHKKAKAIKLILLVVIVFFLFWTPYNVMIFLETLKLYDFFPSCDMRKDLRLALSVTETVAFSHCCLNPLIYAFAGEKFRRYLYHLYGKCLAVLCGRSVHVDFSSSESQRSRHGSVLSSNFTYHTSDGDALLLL
Description: Incubation times ranged from 2.5 min to 4 h. For the association experiments, the radioligand data were fitted to the following monophasic exponential association equation and the association rate (kon) was calculated using the added amounts of radioligand (L) and dissociation rate (koff) as constants. koff was measured in separate dissociation experiments. The dissociation data were fitted to the monophasic exponential decay equation: where Y0 is the binding (cpm) at time zero, X is the time and NS is the (non-specific) binding at infinite times. […] Multiple compound dissociation data were fitted to the biphasic exponential decay equation: […]

[3] = target: T2, CX3CR1 (RPMI-8226 cells endogenously expressing human CX3CR1) (Homo sapiens, UniProt P49238); assay: Cellix flow adhesion of RPMI-8226 cells to full-length CX3CL1; assay type: cell-based; details: flow 0.5 dyn·cm^−2, 15 min pre-incubation, n=3; read-out: IC50, prevention of capture (adhesion) of RPMI-8226 cells to CX3CL1
T2 construct: RPMI-8226 cells, a human B-lymphocyte cell line endogenously expressing human CX3CR1; CCL-155; host or cells: RPMI-8226
T2 sequence (P49238 1-355): T1 sequence (P49238 1-355)
Description: Adhesion of a human B-lymphocyte cell line (RPMI-8226) or hWB leucocytes to full-length human CX3CL1 were monitored using a microfluidics Cellix VenaFlux platform and Vena 8 Biochips (Cellix). Each channel on the Vena 8 chip was coated with anti-His monoclonal antibody (R&D Systems) followed by His-tagged full-length CX3CL1 (R&D Systems) and blocked for non-specific binding (NSB) with BSA.
Cell preparations: RPMI-8226 cells were cultured in RPMI 1640 medium with GlutaMAX and 20% FBS (HyClone, Perbio). Before the experiment, cells were centrifuged at 320 g and resuspended to 5 ×10^6 cells·ml^−1 in RPMI 1640 with 1% FBS. hWB with heparin as anti-coagulant was collected from healthy donors and 5 μM DiOC6 was added. AZD8797 was diluted in a 3-fold series in DMSO starting at 3.3 or 30 μM and pre-incubated with RPMI-8226 cells for 15 min or whole blood for 60 min. DMSO concentration held constant for all AZD8797 concentrations (0.1% for the RPMI-8226 experiments and 0.3% for the whole blood experiments). […]
RPMI-8226 cells in RPMI 1640+1% FBS or whole blood were pumped through the channels at 0.5 dyn·cm^−2 and 2.25 dyn·cm^−2 respectively, for 3 min. Images for quantification were captured using a microscope. Cells adhering to channels were counted and the mean values across five images in each channel were used for calculating the concentration–response curves.

[4] = target: T1, CX3CR1; assay: [3H]AZD8797 competition binding, CHO-hCX3CR1 membranes; set-up: host or cells: CHO-K1; details: 2 nM [3H]AZD8797, n=7
Description: Adherent CHO-K1 cells stably expressing human CX3CR1 (CHO-hCX3CR1) were grown in F12 medium with GlutaMAX, 10% FBS (Sigma–Aldrich) and 400 μg·ml^−1 geneticin and harvested at 80% confluency. Cells were washed in PBS and lysed with an Ultra-Turrax Homogenizer in 50 mM Tris/HCl (pH 7.4) and 1 mM EDTA with Complete™ protease inhibitor (Roche). […] Protein concentration was determined using the BCA method (Thermo Fisher Scientific). […] The filter plate was washed in ice-cold 25 mM HEPES (pH 7.4), 5 mM MgCl2, 1 mM CaCl2 and 500 mM NaCl and dried at 50°C for 1 h. Scintillation cocktail, Optiphase Supermix (PerkinElmer) was added to each well and the radioactivity was measured using a MicroBeta Trilux reader (PerkinElmer). All analysis and calculations were performed using GraphPad Prism 6.01. Functional and competition binding data were analysed using non-linear regression and fitted to a sigmoidal dose-response with variable slope according to the following equation: […] where Y is the amount of radioligand bound (cpm) or functional effect, Top denotes maximal asymptotic binding, and Bottom denotes the minimal asymptotic binding. XC50 is either the EC50 or the IC50 value, and X is the logarithm of the test compound concentration. Ki values were calculated from IC50 values using the Cheng–Prusoff equation: […]

[5] = target: T1, CX3CR1; assay: Dynamic mass redistribution (DMR), CHO-hCX3CR1 cells; assay type: cell-based; set-up: host or cells: CHO-K1
Description: CHO-hCX3CR1 cells were seeded at 12000 cells per well in DMEM with 10% FBS and RPMI-8226 cells at 8000 cells per well in RPMI 1640 medium with GlutaMAX and 20% FBS on 384-well fibronectin-coated EPIC™ biosensor plates (Corning) and cultured at 37°C for 24 h. At 18–24 h prior to compound treatment, the medium was replaced with serum-free medium with or without 100 ng·ml^−1 PTX. Cells were then washed with assay buffer (HBSS, 20 mM HEPES (pH 7.4) and 0.01% BSA) and allowed to equilibrate at 26°C for 1 h inside the EPIC™ plate reader. Following equilibration, a baseline scan was performed before adding AZD8797 or CX3CL1 using a CyBi-Well vario (CyBio). Dynamic mass redistribution (DMR) was then measured during a 60 min scan. As in the [^35S]GTPγS binding assay, the final DMSO concentration was held constant at 1%.

[6] = system: CX3CR1; set-up: method as in PMID 24706865; details: cited from earlier work
[7] = in presence of 10 μM AZD8797 + 100 nM CX3CL1, two-phase model, n=3

SMILES: CC(C)C[C@H](CO)Nc1nc(S[C@@H](C)c2ccccc2)nc2nc(N)sc12 [AZD8797]
- DMR response in untransfected cells [1]: 38 % of AZD8797 effect in transfected cells
- DMR response in untransfected cells (words) [1]: only weakly responded
- k1off of 125I-CX3CL1 dissociation (fast first phase) [2, 7]: 0.45 min⁻¹
- k2off of 125I-CX3CL1 dissociation (second slower phase) [2, 7]: 0.0060 min⁻¹
- Effect on 125I-CX3CL1 association rate (kon) ([2]; results not shown): no effect
- Effect on maximal binding of 125I-CX3CL1 in association experiments ([2]; results not shown): decreased
- IC50 [3]: 6 nM and 5.8 nM
- Ki [4]: 7.3 nM
- Concentration needed for agonist response vs concentration needed to block CX3CL1 binding and functional response in membranes ([5]; CHO-hCX3CR1 cells vs purified membranes): more than 10 fold
- Effect of PTX treatment on DMR signal ([5]; CHO-hCX3CR1 cells, 100 ng·ml^−1 PTX): reduced
- Maximum effect, DMR ([5]; CHO-hCX3CR1 cells, compound alone, no plateau, n=3): 79 % of CX3CL1
- EC50 ([5]; CHO-hCX3CR1 cells, compound alone, no plateau, n=3, read-out: Potency, DMR agonism): > 5000 nM
- Antagonist response in DMR ([5]; challenging EC80 of CX3CL1 with different concentrations, cell line not specified, results not shown): could not measure any antagonist response
- Efficacy in rat model for multiple sclerosis [6]: efficacy
